# In PubChem BioAssay AID2060605 (Molecular Pharmacology Branch, DTP, NCI, 2025):
# System: 947758-054-R-J2-PDC spheroid growth, percent test/control
# Assay: Anticancer human tumor 947758-054-R-J2-PDC patient-derived colon adenocarcinoma cell line growth inhibition [CLK]
# Conditions: spheroids with HUVEC and MSC; for IC50: curve of first compound; for viability, T/C: stronger effect = lower value
# Method in brief: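 Multi-cell-type spheroids combined patient-derived tumor cells with HUVEC endothelial cells and human mesenchymal stem cells. Paired agents were dosed in half-log steps down from about clinical Cmax, or from 10 microM where Cmax was unknown.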
# [1] = second compound 0.0316 µM, first compound 0.0316 µM
# [2] = second compound 0.0316 µM, first compound 0.1 µM
# [3] = second compound 0.1 µM, first compound 0.0316 µM
# [4] = second compound 0.1 µM, first compound 0.1 µM
# [5] = second compound 0.316 µM, first compound 0.0316 µM
# [6] = second compound 0.316 µM, first compound 0.1 µM
# [7] = second compound 1 µM, first compound 0.0316 µM
# [8] = second compound 1 µM, first compound 0.1 µM
# [9] = second compound 3.16 µM, first compound 0.0316 µM
# [10] = second compound 3.16 µM, first compound 0.1 µM
# [11] = second compound 10 µM, first compound 0.0316 µM
# [12] = second compound 10 µM, first compound 0.1 µM
# 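Note: spheroids exposed to compounds for one week before readout.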
# 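Throughout, for viability, T/C: 100% = DMSO vehicle control wells.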
structure (smiles),measurement,setting,value
Cn1ncnc1[C@H]1c2n[nH]c(=O)c3cc(F)cc(c23)N[C@@H]1c1ccc(F)cc1 + CN1CCN(c2cc(C(=O)Nc3cc4cc(-c5cnn(C)c5)ccc4cn3)ccn2)CC1,IC50,second compound 0.0316 µM,> 100 nM
same,IC50,second compound 0.1 µM,> 100 nM
same,IC50,second compound 0.316 µM,< 0.316 nM
same,IC50,second compound 1 µM,< 0.316 nM
same,IC50,second compound 3.16 µM,< 0.316 nM
same,IC50,second compound 10 µM,< 0.316 nM
same,"viability, T/C","second compound 0.0316 µM, first compound 0.000316 µM",141%
same,"viability, T/C","second compound 0.0316 µM, first compound 0.001 µM",155%
same,"viability, T/C","second compound 0.0316 µM, first compound 0.00316 µM",157%
same,"viability, T/C","second compound 0.0316 µM, first compound 0.01 µM",107%
same,"viability, T/C",[1],133%
same,"viability, T/C",[2],197%
same,"viability, T/C","second compound 0.1 µM, first compound 0.000316 µM",161%
same,"viability, T/C","second compound 0.1 µM, first compound 0.001 µM",171%
same,"viability, T/C","second compound 0.1 µM, first compound 0.00316 µM",149%
same,"viability, T/C","second compound 0.1 µM, first compound 0.01 µM",134%
same,"viability, T/C",[3],181%
same,"viability, T/C",[4],145%
same,"viability, T/C","second compound 0.316 µM, first compound 0.000316 µM",4.7%
same,"viability, T/C","second compound 0.316 µM, first compound 0.001 µM",6.84%
same,"viability, T/C","second compound 0.316 µM, first compound 0.00316 µM",5.57%
same,"viability, T/C","second compound 0.316 µM, first compound 0.01 µM",4.75%
same,"viability, T/C",[5],5.66%
same,"viability, T/C",[6],4.51%
same,"viability, T/C","second compound 1 µM, first compound 0.000316 µM",0.15%
same,"viability, T/C","second compound 1 µM, first compound 0.001 µM",0.15%
same,"viability, T/C","second compound 1 µM, first compound 0.00316 µM",1.79%
same,"viability, T/C","second compound 1 µM, first compound 0.01 µM",0.11%
same,"viability, T/C",[7],0.18%
same,"viability, T/C",[8],1.95%
same,"viability, T/C","second compound 3.16 µM, first compound 0.000316 µM",0.37%
same,"viability, T/C","second compound 3.16 µM, first compound 0.001 µM",0.17%
same,"viability, T/C","second compound 3.16 µM, first compound 0.00316 µM",0.17%
same,"viability, T/C","second compound 3.16 µM, first compound 0.01 µM",0.13%
same,"viability, T/C",[9],0.37%
same,"viability, T/C",[10],1.28%
same,"viability, T/C","second compound 10 µM, first compound 0.000316 µM",0.25%
same,"viability, T/C","second compound 10 µM, first compound 0.001 µM",2.6%
same,"viability, T/C","second compound 10 µM, first compound 0.00316 µM",0.52%
same,"viability, T/C","second compound 10 µM, first compound 0.01 µM",0.26%
same,"viability, T/C",[11],0.26%
same,"viability, T/C",[12],2.18%
Nc1ccn(C2OC(CO)C(O)C2(F)F)c(=O)n1 (centres undefined) + CN1CCN(c2cc(C(=O)Nc3cc4cc(-c5cnn(C)c5)ccc4cn3)ccn2)CC1,IC50,second compound 0.0316 µM,33.1 nM
same,IC50,second compound 0.1 µM,< 31.6 nM
same,IC50,second compound 0.316 µM,< 31.6 nM
same,IC50,second compound 1 µM,< 31.6 nM
same,IC50,second compound 3.16 µM,< 31.6 nM
same,IC50,second compound 10 µM,< 31.6 nM
same,"viability, T/C",[1],51.6%
same,"viability, T/C",[2],9.51%
same,"viability, T/C","second compound 0.0316 µM, first compound 0.316 µM",11.7%
same,"viability, T/C","second compound 0.0316 µM, first compound 1 µM",13.8%
same,"viability, T/C","second compound 0.0316 µM, first compound 3.16 µM",10.8%
same,"viability, T/C","second compound 0.0316 µM, first compound 10 µM",6.34%
same,"viability, T/C",[3],20.8%
same,"viability, T/C",[4],6.62%
same,"viability, T/C","second compound 0.1 µM, first compound 0.316 µM",10.4%
same,"viability, T/C","second compound 0.1 µM, first compound 1 µM",10.6%
same,"viability, T/C","second compound 0.1 µM, first compound 3.16 µM",7.69%
same,"viability, T/C","second compound 0.1 µM, first compound 10 µM",7.26%
same,"viability, T/C",[5],2.49%
same,"viability, T/C",[6],1.07%
same,"viability, T/C","second compound 0.316 µM, first compound 0.316 µM",1.17%
same,"viability, T/C","second compound 0.316 µM, first compound 1 µM",0.85%
same,"viability, T/C","second compound 0.316 µM, first compound 3.16 µM",0.53%
same,"viability, T/C","second compound 0.316 µM, first compound 10 µM",3.53%
same,"viability, T/C",[7],0.13%
same,"viability, T/C",[8],0.13%
same,"viability, T/C","second compound 1 µM, first compound 0.316 µM",2.17%
same,"viability, T/C","second compound 1 µM, first compound 1 µM",0.08%
same,"viability, T/C","second compound 1 µM, first compound 3.16 µM",0.45%
same,"viability, T/C","second compound 1 µM, first compound 10 µM",0.11%
same,"viability, T/C",[9],1.66%
same,"viability, T/C",[10],0.22%
same,"viability, T/C","second compound 3.16 µM, first compound 0.316 µM",0.38%
same,"viability, T/C","second compound 3.16 µM, first compound 1 µM",0.21%
same,"viability, T/C","second compound 3.16 µM, first compound 3.16 µM",0.27%
same,"viability, T/C","second compound 3.16 µM, first compound 10 µM",0.3%
same,"viability, T/C",[11],0.27%
same,"viability, T/C",[12],0.28%
same,"viability, T/C","second compound 10 µM, first compound 0.316 µM",0.31%
same,"viability, T/C","second compound 10 µM, first compound 1 µM",0.32%
same,"viability, T/C","second compound 10 µM, first compound 3.16 µM",1.07%
same,"viability, T/C","second compound 10 µM, first compound 10 µM",0.35%
